# In patent US7138270B2, “Assay device and method for chemical or biological screening” (University College Cork—National University of Ireland, Cork, priority 2002, dated 2006):
# Tested on: S. pombe yeast cells
# Test: Respirometric assessment of viability of S. pombe yeast cells treated with toxicant (oxygen uptake, phosphorescent oxygen probe)
# Format: cell-based
# Settings: S. pombe cells incubated with different concentrations of toxicant, aliquots at different time intervals; FIG. 5
# Method: A solid-state oxygen probe comprising a thin film polymer coating of the phosphorescent dye platinum(II)-tetrakis(pentafluorophenyl)porphine (PtTFPP) and polycarbonate was used with the device 1 shown in FIG. 1. One milligram of PtTFPP is dissolved in 0.01% (w/v) solution of polycarbonate (M.ca. 60 000) in chloroform. One microlitre aliquotes of this solution were dispensed to the microwells and allowed to air dry for 10 minutes to produce thin film phosphorescent oxygen-sensitive coating inside the microwells.
# S. pombe yeast cells were incubated with different concentrations of cadmium nitrate toxicant. Two μl aliquots were taken from each sample at different time intervals, and placed in the wells of microwell chambers coated with a PtTFPP-polycarbonate solid-state oxygen probe. The respiration profiles of samples were monitored as described in Example 1 above, together with a control sample containing the same concentration of test cells, but without the presence of a toxicant. The levels of oxygen uptake by each sample is evaluated on the basis of time profiles of the phosphorescent signal (initial slopes), compared to those obtained in the control sample. […] This could be extended to compare cells growing in the presence of necessary growth factors, undergoing survival factor deprivation, or undergoing apoptosis.
smiles,measurement,value
O=[N+]([O-])[O-].O=[N+]([O-])[O-].[Cd+2] [cadmium nitrate],"oxygen uptake / initial slope of phosphorescent signal time profile, compared to control sample (cell viability)",decrease in the initial slope and oxygen uptake with respect to control sample
